Where “and” joins values, the source holds several entries; their conditions need not be identical. Identical values can stand only once. Like-named read-outs stand apart in the source and are kept apart here.

For data set [1], the target named is T1, α4β2*-nAChRs (Mus musculus, UniProt O70174+Q9ERK7, V287L). In kind it is biochemical.
Data set [2] has as its target T2, α4β2*-nAChRs (Mus musculus, UniProt O70174+Q9ERK7). In kind it is biochemical.
In a further data set the target is α4β2*-nAChR (Mus musculus, UniProt O70174+Q9ERK7). The format is biochemical.
α4β2*-nAChR, sequence (O70174 31-629): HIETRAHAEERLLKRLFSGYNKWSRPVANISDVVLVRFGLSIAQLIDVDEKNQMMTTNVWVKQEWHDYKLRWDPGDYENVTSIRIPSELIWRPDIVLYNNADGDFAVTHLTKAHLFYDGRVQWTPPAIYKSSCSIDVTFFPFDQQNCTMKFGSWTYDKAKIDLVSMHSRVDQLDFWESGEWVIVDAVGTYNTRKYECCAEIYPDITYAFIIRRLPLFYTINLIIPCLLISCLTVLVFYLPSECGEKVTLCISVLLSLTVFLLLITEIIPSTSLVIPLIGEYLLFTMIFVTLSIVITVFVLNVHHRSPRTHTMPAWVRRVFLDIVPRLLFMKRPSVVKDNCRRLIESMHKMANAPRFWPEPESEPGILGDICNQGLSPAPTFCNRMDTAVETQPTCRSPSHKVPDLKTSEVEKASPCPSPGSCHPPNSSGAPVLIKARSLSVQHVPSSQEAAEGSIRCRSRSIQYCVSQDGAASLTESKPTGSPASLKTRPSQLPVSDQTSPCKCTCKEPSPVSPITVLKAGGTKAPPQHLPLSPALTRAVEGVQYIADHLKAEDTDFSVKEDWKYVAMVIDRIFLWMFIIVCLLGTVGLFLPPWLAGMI
α4β2*-nAChR, sequence (Q9ERK7 26-501): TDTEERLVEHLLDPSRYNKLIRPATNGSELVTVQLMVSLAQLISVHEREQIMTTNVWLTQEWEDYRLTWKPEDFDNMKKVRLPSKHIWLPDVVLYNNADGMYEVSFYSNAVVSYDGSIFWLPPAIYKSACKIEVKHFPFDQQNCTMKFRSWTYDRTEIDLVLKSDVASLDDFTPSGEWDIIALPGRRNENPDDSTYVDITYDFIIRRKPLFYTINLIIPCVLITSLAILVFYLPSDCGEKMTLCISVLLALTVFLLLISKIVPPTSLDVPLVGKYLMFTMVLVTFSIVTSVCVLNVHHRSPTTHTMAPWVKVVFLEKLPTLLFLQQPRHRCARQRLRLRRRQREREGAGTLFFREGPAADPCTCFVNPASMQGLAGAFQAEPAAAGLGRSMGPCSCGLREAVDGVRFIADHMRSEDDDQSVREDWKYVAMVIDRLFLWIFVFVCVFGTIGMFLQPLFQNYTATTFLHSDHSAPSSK
Data set [3] deals with T1, α4β2*-nAChRs.
Data set [4] deals with T2, α4β2*-nAChRs.
In the next data set the test system is α4S248F mutation. Conditions: 2007, cited from earlier work.
The target of data set [5] is α6β2*-nAChR (Mus musculus, UniProt Q9ERK7+Q9R0W9, V287L). Particulars: striatum, MT mice.
α6β2*-nAChR (Mus musculus, UniProt Q9ERK7+Q9R0W9, V287L), sequence (Q9R0W9 31-494): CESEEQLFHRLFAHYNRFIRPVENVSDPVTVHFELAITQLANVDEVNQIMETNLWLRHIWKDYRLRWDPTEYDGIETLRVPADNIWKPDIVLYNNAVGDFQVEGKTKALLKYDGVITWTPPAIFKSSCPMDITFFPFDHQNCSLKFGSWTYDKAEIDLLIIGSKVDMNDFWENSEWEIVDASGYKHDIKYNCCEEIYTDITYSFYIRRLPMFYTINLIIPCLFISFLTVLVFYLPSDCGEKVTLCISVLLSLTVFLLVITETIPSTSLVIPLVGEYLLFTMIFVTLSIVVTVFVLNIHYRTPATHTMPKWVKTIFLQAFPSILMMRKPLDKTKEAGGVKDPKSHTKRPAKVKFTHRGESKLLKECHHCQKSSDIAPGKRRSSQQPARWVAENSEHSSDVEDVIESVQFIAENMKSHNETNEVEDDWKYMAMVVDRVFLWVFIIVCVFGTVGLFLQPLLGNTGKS
α6β2*-nAChR (Mus musculus, UniProt Q9ERK7+Q9R0W9, V287L), sequence (Q9ERK7 26-501 V287L): as the sequence (Q9ERK7 26-501) above, with V262L counted along it
Data set [6] has as its target α6β2*-nAChR (Mus musculus, UniProt Q9ERK7+Q9R0W9).
Data set [7] addresses T3, α4β2*-nAChR binding sites (Mus musculus, UniProt O70174+Q9ERK7, V287L). The data set can be described thus: [125I]-Epibatidine binding to membrane fragments, cortex. Particulars: read-out: Kd for [125I]-epibatidine, MT mice.
Data set [8] deals with α4β2*-nAChR binding sites. The data set is described as above. Particulars: read-out: Kd for [125I]-epibatidine, HT mice. On the set-up: species or system mouse.
Data set [9] deals with T4, α4β2*-nAChR binding sites (Mus musculus, UniProt O70174+Q9ERK7). The data set is described as above. Particulars: read-out: Kd for [125I]-epibatidine, WT mice.
T4 sequence (Q9ERK7 26-501): as the sequence (Q9ERK7 26-501) above
T4 sequence (O70174 31-629): as the sequence (O70174 31-629) above
The target in data set [10] is T3, α4β2*-nAChR binding sites. The data set can be described thus: [125I]-Epibatidine binding to membrane fragments, thalamus. Conditions: read-out: Kd for [125I]-epibatidine, MT mice.
Data set [11] concerns the target α4β2*-nAChR binding sites. Described as above. More on the design: species or system mouse. Particulars: read-out: Kd for [125I]-epibatidine, HT mice.
Data set [12] deals with T4, α4β2*-nAChR binding sites. Described as above. Conditions: read-out: Kd for [125I]-epibatidine, WT mice.
Data set [13] deals with β2VL mice. Particulars: male, mouse, in vivo, ip, 2 mg/kg.
Data set [14] concerns β2VL mice. Conditions: mouse, in vivo, ip, 5 mg/kg.
Where [15] appears, read: β2VL knock-in, homozygous mutant (MT).

T3 sequence (O70174 31-629): as above
T3 sequence (Q9ERK7 26-501 V287L): as the sequence (Q9ERK7 26-501) above, with V262L counted along it
T1 sequence (O70174 31-629): as the sequence (O70174 31-629) above
T1 sequence (Q9ERK7 26-501 V287L): as the sequence (Q9ERK7 26-501) above, with V262L counted along it

On to `CC(=O)OCC[N+](C)(C)C` [ACh, acetylcholine iodide], for which the “maximum ACh-stimulated [3H]-GABA release” value at α4β2*-nAChRs [1] was 2.64±0.13; at α4β2*-nAChRs [2], 3.31±0.24 and 3.69±0.19; on α4β2*-nAChRs [3], 2.11±0.14; at α4β2*-nAChRs [4] it was 1.96±0.17 and 2.25±0.16. Besides, the “reduction in maximal ACh-stimulated [3H]-GABA release” value is 20% at α4β2*-nAChRs [2] and 0% at α4β2*-nAChRs [4]. Besides, the “control ACh-stimulated 86Rb+ efflux” value at α4β2*-nAChR is 5.64±1.43 and 3.35±0.47. Further, the “decrease in EC50, ACh-stimulated [3H]-GABA release” value on α4β2*-nAChRs [4] is “approximately 10 fold”. For the same compound, the “decrease in maximal ACh-stimulated [3H]-GABA release” value in the data set on α4S248F mutation (α4S248F HT mice ref Teper et al.) is 60%; with α4S248F mutation (α4S248F MT mice ref Teper et al.), 80%. Besides, the “α-CtxMII-sensitive maximal [3H]-dopamine release” value on α6β2*-nAChR [5] stood at 3.73±0.29; on α6β2*-nAChR [6] it was 3.31±0.30; on α6β2*-nAChR [6] (striatum, WT mice) it was 4.82±0.30. Also, on α6β2*-nAChR [6], the “decrease in the α-CtxMII sensitive [3H]-dopamine release” value is 23%.

For orientation: Kd means the concentration at which binding is half-saturated. For the compound `Ic1ccc(C2CC3CCC2N3)cn1` (stereo not shown) [[^125I]-epibatidine], the Kd in [7] was 0.13 ± 0.02 nM; in [8] it was 0.12 ± 0.02 nM; in [9] it was 0.15 ± 0.03 nM; in data set [10], 0.11 ± 0.03 nM; in [11] it was 0.08 ± 0.01 nM; in [12], 0.15 ± 0.06 nM.

In the case of `CN1CCC[C@H]1c1cccnc1` [nicotine], in the data set on β2VL mice [13], the “mice displaying diagonal retrograde tail” value was 2/19, the “mice displaying tonic forelimb digit splaying” value is recorded as 1/19, the “mice displaying tonic forelimb extension” value was 1/19 and the “mice exhibiting forelimb clonus” value was 0/19. Further, the “post-injection latency for onset of diagonal retrograde tail” value in the data set on β2VL mice [13] is given as 31 ± 8 s. In the data set with β2VL mice [13] (setting [15]), the “mice displaying diagonal retrograde tail” value was 19/19, the “mice displaying tonic forelimb digit splaying” value was 16/19, the “mice displaying tonic forelimb extension” value is on record as 18/19 and the “mice exhibiting forelimb clonus” value is recorded as 12/19. Moreover, in the data set on β2VL mice [13] (setting [15]), the “post-injection latency for onset of forelimb clonus” value is reported as 59 ± 7 s, the “post-injection latency for onset of tonic digit splaying” value is recorded as 59 ± 6 s and the “post-injection latency for onset of tonic forelimb extension” value is 57 ± 5 s. In the data set with β2VL mice [14], the “interval from DAC to spike-wave seizure with tonic-clonic convulsions” value is 2 to 3 min and the “time to tonic-clonic convulsion with EEG spike-wave discharges post-injection” value is on record as 3~4 min.
